Results from article PMC12670400, “LEKTI-Grafted Sunflower Trypsin Inhibitor: A Potential Therapeutic for Skin Diseases” (Journal of Medicinal Chemistry, 2025).

Settings: amide bond; 42-membered ring; MESNa/TCEP (N-to-S acyl shift, NCL); then NH4HCO3 air oxidation; 0.1 M sodium phosphate pH 5.8; 50.0 °C; 2 steps

Sequence	ring closure, yield after HPLC [%]
GFCHREYPPHCWPN	18
GFCHRSYPPHCWPN	15
GFCTRENPPHCWPN	14
GFCTRSNPPHCWPN	15
GRCTRSIPPHCWPD	18

Same assay, conditions: amide bond; 42-membered ring; NaNO2; MPAA (NCL); TCEP; then NH4HCO3 air oxidation; 6 M guanidinium chloride buffer; 1.0 mM; 25.0 °C; 2 steps

Sequence	ring closure, yield after HPLC [%]
GFCHRSYPPECWPN	6
GFCTRSNPPECWPN	8
GSCTRSSPPECWPN	9
GYCTRSSPPECWPN	12
